Tests used:
[1] = tested on: S. aureus and S. epidermidis isolates; assay: Semi-quantitative biofilm assay (crystal violet, OD570) after culturing for 24 h; format: cell-based; conditions: 24 h culture, OD570, FIG. 12B, p≤0.005
Method: 3 ml Trypticase Soy Broth was inoculated with a colony from an overnight plate. Pre-cultures were grown at 37° C. with shaking to mid-exponential phase (2-3 h), and then used to inoculate fresh TSB to a starting OD600 of 0.01. 200 μl aliquots of this suspension were then inoculated into wells of one full row of the test plate. The plate was then incubated in a FLUOstar OPTIMA microplate reader at 37° C., and the optical density of each well measured every hour over a 24 h period. After 24 h the suspension in each plate was removed. The plate itself was washed three times with phosphate buffered saline, pH 7.4 (PBS), air dried and stained with 150 μl crystal violet solution. The dye bound to any attached cells was solubilized by addition of 150 μl of 95% ethanol. Optical density was measured as absorbance at 570 nm using a FLUOstar OPTIMA microplate reader and biofilm positive defined as OD570 above 1. All S. aureus and S. epidermidis isolates were tested in triplicate in three independent experiments. Each plate also consisted of negative controls (wells without bacterial inoculation). Data was analyzed using unpaired t-tests or one-way ANOVA, and the level of significance set at p<0.05. The ability of the bacteria to form a biofilm in the presence of the ATX samples was determined after culturing for 24 h using a semi-quantitative biofilm assay.

[2] = tested on: S. epidermidis 1457; assay: Bacterial growth on coated 96 well plates, optical density over 24 h; format: cell-based; conditions: coated wells, 37° C., FIG. 12A
Method: The potential antibacterial properties of polymer based ATX samples were tested against Staphylococcus aureus MRSA252, S. aureus MSSA476 and S. epidermidis 1457. Using solvent casting method [J. Ghosh et al., Polymer, vol. 52, pp. […]], 96 well plates were coated with the following samples—ATX only, ATX+sebacic acid (SA), ATX+Hexadecanoic acid (HA) and ATX+sebacic acid+2% polyethylene glycol (PEG). Each sample coated 3 wells per row and the last row was left blank as a control.
3 ml Trypticase Soy Broth was inoculated with a colony from an overnight plate. Pre-cultures were grown at 37° C. with shaking to mid-exponential phase (2-3 h), and then used to inoculate fresh TSB to a starting OD600 of 0.01. 200 μl aliquots of this suspension were then inoculated into wells of one full row of the test plate. The plate was then incubated in a FLUOstar OPTIMA microplate reader at 37° C., and the optical density of each well measured every hour over a 24 h period. […]
Optical density was measured as absorbance at 570 nm using a FLUOstar OPTIMA microplate reader and biofilm positive defined as OD570 above 1. […] Data was analyzed using unpaired t-tests or one-way ANOVA, and the level of significance set at p<0.05. The ability of the bacteria to form a biofilm in the presence of the ATX samples was determined after culturing for 24 h using a semi-quantitative biofilm assay.

With `CC1=C(/C=C/C(C)=C/C=C/C(C)=C/C=C/C=C(C)/C=C/C=C(C)/C=C/C2=C(C)C(=O)[C@@H](O)CC2(C)C)C(C)(C)C[C@H](O)C1=O` [ATX, 3,3′-dihydroxy-β,βcarotene-4,4′-dione] as the compound, how does the “biofilm formation on coated surface vs control” value [1] read?
Its value is “inhibited the bacteria from forming biofilm”.

What about the “effect on growth of the bacteria (optical density)” value [2] of the same compound?
The value was “significant effect on inhibiting the growth”.

From patent US10160831B2, “Astaxanthin based polymer and uses thereof” (SHENKAR COLLEGE OF ENGINEERING AND DESIGN, priority 2014, dated 2018)
